Test results as given in patent US20240043435A1, “TYK-2 INHIBITOR” (BEIGENE, LTD., priority 2020, published 2024).

Legend:
[1] = molecular target: T1, TYK2-JH2 (aa 575-869, in-house) protein (Homo sapiens, UniProt P29597); experiment: TYK2-JH2 biochemical assay (HTRF probe displacement); type: binding; conditions: Biochemical assay; read-out: TYK2-JH2 IC50
T1 construct: TYK2-JH2 (aa 575-869, in-house) protein; made in house
Method in brief: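 HTRF probe-displacement format: compound dilutions (10 points, 5-fold, from 500 uM in DMSO at 500×) were combined with 0.2 nM TYK2-JH2 protein for 0.5 h at room temperature in HEPES pH 7.5 buffer with MgCl2, BSA, DTT and Brij-35. Percent inhibition came from the 615/665 nm fluorescence ratio, fitted to a four-parameter logistic for IC50.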

[2] = tested on: JAK2, TYK2/p-STAT4 (Tyr693) activated by IL-12 in NK-92 cell line; experiment: IL-12-JAK2, TYK2/p-STAT4 (Tyr693) inhibition IC50 cellular assay; type: cell-based; conditions: for Selectivity fold (TYK2/JAK2): Cellular assay, pSTAT5/GM-CSF IC50 vs pSTAT4/IL-12 IC50; for IC50: NK92, Cellular assay, read-out: pSTAT4/IL-12 IC50
Method in brief: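 p-STAT4 (Tyr693) in lysates was measured by AlphaLISA SureFire Ultra after a 30 min IL-12 challenge (40 ng/ml final) at 37° C. Overnight-starved, IL-2-free NK-92 cells had been pretreated 1 h with compound at 10000 to 0.61 nM (4-fold, 8 points). IC50 values came from four-parameter logistic fitting.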

pSTAT5/GM-CSF = pSTAT5/GM-CSF cellular assay (JAK2 selectivity); type: cell-based; conditions: for Selectivity fold (TYK2/JAK2): pSTAT5/GM-CSF IC50 over pSTAT4/IL-12 IC50

T1 sequence (P29597 575-869): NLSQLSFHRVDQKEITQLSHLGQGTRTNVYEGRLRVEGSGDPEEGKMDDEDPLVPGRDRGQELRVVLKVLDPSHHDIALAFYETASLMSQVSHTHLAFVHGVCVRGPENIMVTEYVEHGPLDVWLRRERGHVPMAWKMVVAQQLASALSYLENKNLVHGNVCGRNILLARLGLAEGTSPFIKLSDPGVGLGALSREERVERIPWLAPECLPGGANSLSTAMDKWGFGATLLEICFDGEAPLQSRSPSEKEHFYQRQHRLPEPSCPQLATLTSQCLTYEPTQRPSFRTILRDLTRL

Compound | IC50 [1] | IC50 [2] | IC50 (pSTAT5/GM-CSF) | Selectivity fold (TYK2/JAK2) [2] | Selectivity fold (TYK2/JAK2) (pSTAT5/GM-CSF)
CC(=O)Nc1cc(Nc2cc(OC3CC3)cc(S(C)(=O)=O)c2)c(-c2ccc(C(C)(C)O)cn2)cn1 [Example H23, N-(4′-((3-cyclopropoxy-5-(methylsulfonyl)phenyl)amino)-5-(2-hydroxypropan-2-yl)-[2,3′-bipyridin]-6′-yl)acetamide] | 0.034 nM | 5.7 nM | > 10 µM | >1754 fold | –
CC(=O)Nc1cc(Nc2cc(OC(C)C)cc(S(C)(=O)=O)c2)c(-c2ccc(C(C)(C)O)cn2)cn1 [Example H24, N-(5-(2-hydroxypropan-2-yl)-4′-((3-isopropoxy-5-(methylsulfonyl)phenyl)amino)-[2,3′-bipyridin]-6′-yl)acetamide] | 0.034 nM | 5.39 nM | > 10 µM | >1855 fold | –
CC(=O)Nc1cc(Nc2cc(C(F)F)cc(S(C)(=O)=O)c2)c(-c2ccc(C(C)(C)O)cn2)cn1 [Example H25, N-(4′-((3-(difluoromethyl)-5-(methylsulfonyl)phenyl)amino)-5-(2-hydroxypropan-2-yl)-[2,3′-bipyridin]-6′-yl)acetamide] | 0.038 nM | 7.53 nM | > 10 µM | >1328 fold | –
CC(=O)Nc1cc(Nc2cc(O[C@H]3C[C@@H](O)C3)cc(S(C)(=O)=O)n2)c(-c2ccc(C(C)(C)O)cn2)cn1 [Example H28, N-(4′-((4-(cis-3-hydroxycyclobutoxy)-6-(methylsulfonyl)pyridin-2-yl)amino)-5-(2-hydroxypropan-2-yl)-[2,3′-bipyridin]-6′-yl)acetamide] | 0.03 nM | 29.2 nM | > 10 µM | >342 fold | –
COC1CC(Oc2cc(Nc3cc(NC(C)=O)ncc3-c3ccc(C(C)(C)O)cn3)nc(S(C)(=O)=O)c2)C1 (stereo not drawn) [Example H29, N-(5-(2-hydroxypropan-2-yl)-4′-((4-(3-methoxycyclobutoxy)-6-(methylsulfonyl)pyridin-2-yl)amino)-[2,3′-bipyridin]-6′-yl)acetamide] | 0.022 nM | 1.77 nM | 8.49 µM | 4797 fold | –
CC(=O)Nc1cc(Nc2cc(OCC3CC3)cc(S(C)(=O)=O)n2)c(-c2ccc(C(C)(C)O)cn2)cn1 [Example H30, N-(4′-((4-(cyclopropylmethoxy)-6-(methylsulfonyl)pyridin-2-yl)amino)-5-(2-hydroxypropan-2-yl)-[2,3′-bipyridin]-6′-yl)acetamide] | 0.023 nM | 0.972 nM | > 10 µM | >10288 fold | –
CC(=O)Nc1cc(Nc2cc(OC3CCC3)cc(S(C)(=O)=O)n2)c(-c2ccc(C(C)(C)O)cn2)cn1 [Example H31, N-(4′-((4-cyclobutoxy-6-(methylsulfonyl)pyridin-2-yl)amino)-5-(2-hydroxypropan-2-yl)-[2,3′-bipyridin]-6′-yl)acetamide] | 0.023 nM | 0.935 nM | > 10 µM | >10695 fold | –
CC(=O)Nc1cc(Nc2cc(S(C)(=O)=O)ccc2C)c(-c2ccc(C(C)(C)O)cn2)cn1 [Example H35, N-(5-(2-hydroxypropan-2-yl)-4′-((2-methyl-5-(methylsulfonyl)phenyl)amino)-[2,3′-bipyridin]-6′-yl)acetamide] | 0.028 nM | 3.17 nM | > 10 µM | >3154 fold | –
CC(=O)Nc1cc(Nc2cccc(S(N)(=O)=O)n2)c(-c2ccn(C)n2)cn1 [Example J4, N-(5-(1-methyl-1H-pyrazol-3-yl)-4-((6-sulfamoylpyridin-2-yl)amino)pyridin-2-yl)acetamide] | 0.028 nM | 4.94 nM | > 10 µM | – | >2024 fold

Continued by falling IC50 [1], values first:

IC50 [1] | IC50 [2] | IC50 (pSTAT5/GM-CSF) | Compound | Selectivity fold (TYK2/JAK2) [2] | Selectivity fold (TYK2/JAK2) (pSTAT5/GM-CSF)
0.039 nM | 11.7 nM | > 10 µM | CC(=O)Nc1cc(Nc2cc(OCC(C)O)cc(S(C)(=O)=O)n2)c(-c2ccc(C(C)(C)O)cn2)cn1 (stereo not drawn) [Example H26, N-(5-(2-hydroxypropan-2-yl)-4′-((4-(2-hydroxypropoxy)-6-(methylsulfonyl)pyridin-2-yl)amino)-[2,3′-bipyridin]-6′-yl)acetamide] | >854 fold | –
0.031 nM | 2.72 nM | > 10 µM | CC(=O)Nc1cc(Nc2cc(OC3COC3)cc(S(C)(=O)=O)n2)c(-c2ccc(C(C)(C)O)cn2)cn1 [Example H27, N-(5-(2-hydroxypropan-2-yl)-4′-((6-(methylsulfonyl)-4-(oxetan-3-yloxy)pyridin-2-yl)amino)-[2,3′-bipyridin]-6′-yl)acetamide] | >3676 fold | –
0.026 nM | 0.286 nM | > 10 µM | CC(=O)Nc1cc(Nc2cc(OCC3CC3)cc(S(C)(=O)=O)n2)c(-c2ccn(C)n2)cn1 [Example J3, N-(4-((4-(cyclopropylmethoxy)-6-(methylsulfonyl)pyridin-2-yl)amino)-5-(1-methyl-1H-pyrazol-3-yl)pyridin-2-yl)acetamide] | – | >34965 fold
0.023 nM | 0.447 nM | > 10 µM | CC(=O)Nc1cc(Nc2nc(S(C)(=O)=O)ccc2C)c(-c2ccc(C(C)(C)O)cn2)cn1 [Example H32, N-(5-(2-hydroxypropan-2-yl)-4′-((3-methyl-6-(methylsulfonyl)pyridin-2-yl)amino)-[2,3′-bipyridin]-6′-yl)acetamide] | >22371 fold | –
0.023 nM | 1.12 nM | > 10 µM | CC(=O)Nc1cc(Nc2ccc(F)c(S(C)(=O)=O)n2)c(-c2ccc(C(C)(C)O)cn2)cn1 [Example H34, N-(4′-((5-fluoro-6-(methylsulfonyl)pyridin-2-yl)amino)-5-(2-hydroxypropan-2-yl)-[2,3′-bipyridin]-6′-yl)acetamide] | >8928 fold | –
0.022 nM | 1.95 nM | > 10 µM | CCS(=O)(=O)c1cc(OC(C)C)cc(Nc2cc(NC(C)=O)ncc2-c2ccc(C(C)(C)O)cn2)n1 [Example H36, N-(4′-((6-(ethylsulfonyl)-4-isopropoxypyridin-2-yl)amino)-5-(2-hydroxypropan-2-yl)-[2,3′-bipyridin]-6′-yl)acetamide] | >5128 fold | –
0.022 nM | 3 nM | > 10 µM | CC(=O)Nc1cc(Nc2cc(OC(C)C)cc(S(C)(=O)=O)n2)c(-c2ccn(C)n2)cn1 [Example J2, N-(4-((4-isopropoxy-6-(methylsulfonyl)pyridin-2-yl)amino)-5-(1-methyl-1H-pyrazol-3-yl)pyridin-2-yl)acetamide] | – | >3333 fold
0.022 nM | 2.05 nM | > 10 µM | CCS(=O)(=O)c1cccc(Nc2cc(NC(C)=O)ncc2-c2ccn(C)n2)n1 [Example J5, N-(4-((6-(ethylsulfonyl)pyridin-2-yl)amino)-5-(1-methyl-1H-pyrazol-3-yl)pyridin-2-yl)acetamide] | – | >4878 fold
0.019 nM | 0.777 nM | > 10 µM | CCOc1cc(Nc2cc(NC(C)=O)ncc2-c2ccc(C(C)(C)O)cn2)nc(S(C)(=O)=O)c1 [Example H33, N-(4′-((4-ethoxy-6-(methylsulfonyl)pyridin-2-yl)amino)-5-(2-hydroxypropan-2-yl)-[2,3′-bipyridin]-6′-yl)acetamide] | >22371 fold | –
